Values quoted from earlier work as cited in patent US6916479B2, “Compositions containing an antifungal and a phospholipid” (Janssen Pharmaceutica N.V., priority 1997, dated 2005).

Conditions: prior art medicated shampoo

Structure (SMILES)	number of patients not responding to particular medicated shampoo
CC(=O)N1CCN(c2ccc(OCC3COC(Cn4ccnc4)(c4ccc(Cl)cc4Cl)O3)cc2)CC1 (centres unmarked) [ketoconazole]	up to 30%
S=[Se]=S [selenium sulfide]	up to 40%
